# Reference: US9914727B2, “Factor IXa inhibitors” (Merck Sharp & Dohme Corp., priority 2012, dated 2018)
# Target: Factor IXa (Homo sapiens, UniProt P00740)
# Test: Determination of inhibitory activity against Factor IXa (FIXa Low Enzyme; cleavage of fluorescent peptide CH3SO2-D-CHG-Gly-Arg-AFC)
# Format: biochemical
# Conditions: fluorogenic peptide substrate CH3SO2-D-CHG-Gly-Arg-AFC.AcOH; excitation 405, emission 510
# Protocol: Determination of Inhibitory Activity Against Factor IXa
# Formation of a clot to stem bleeding at a site of blood vessel injury involves the coordinated activity of a group of plasma proteins that initiate and propagate fibrin formation and subsequently protect fibrin from premature degradation. Factor IX is a key component of the plasma system that forms a fibrin clot at a site of vascular injury. The activity of Factor IXa is measured by monitoring the cleavage of the fluorescent peptide, CH3SO2-D-CHG-Gly-Arg-AFC.AcOH (“CHG” is cyclohexyl-glycine and “AFC” is trifluoro aminomethyl coumarin). Factor IXa cleaves the […] bond between Arg and AFC, thereby releasing the AFC fluorophore. The free AFC can be detected with a fluorescence detector at an excitation wavelength of 405 nm and emission wavelength of 510 nm.
# Factor IXa, sequence (P00740 227-461 limits assumed): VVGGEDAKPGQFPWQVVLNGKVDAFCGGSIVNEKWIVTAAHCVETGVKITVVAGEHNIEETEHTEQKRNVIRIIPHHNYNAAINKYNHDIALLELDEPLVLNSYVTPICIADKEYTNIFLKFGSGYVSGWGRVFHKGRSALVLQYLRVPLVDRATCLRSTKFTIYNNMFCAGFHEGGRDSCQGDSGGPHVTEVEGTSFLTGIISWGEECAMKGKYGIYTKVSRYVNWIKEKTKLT
# Factor IXa, sequence (P00740 47-191 partner limits assumed): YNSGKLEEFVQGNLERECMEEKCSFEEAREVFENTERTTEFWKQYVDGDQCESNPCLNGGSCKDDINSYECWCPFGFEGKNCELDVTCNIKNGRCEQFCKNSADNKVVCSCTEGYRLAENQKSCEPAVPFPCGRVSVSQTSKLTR
row,FIXa Low Enzyme [nM],Structure (SMILES)
1,102.1,"C[C@]1([C@@H](O)c2nc(=O)c3c(ccc4c(N)nsc43)[nH]2)OCCN(c2ccn(-c3ccc(=O)n(C(F)F)c3)n2)C1=O [Example 1, (R)-2-((S)-(3-Amino-9-oxo-6,9-dihydroisothiazolo[5,4-f]quinazolin-7-yl)(hydroxy)methyl)-4-(1-(1-(difluoromethyl)-6-oxo-1,6-dihydropyridin-3-yl)-1H-pyrazol-3-yl)-2-methylmorpholin-3-one]"
2,8.597,"C[C@]1([C@@H](O)c2nc(=O)c3c(ccc4c(N)nsc43)[nH]2)OCCN(c2ccn(-c3ccnnc3)n2)C1=O [Example 2, (R)-2-((S)-(3-Amino-9-oxo-6,9-dihydroisothiazolo[5,4-f]quinazolin-7-yl)(hydroxy)methyl)-2-methyl-4-(1-(pyridazin-4-yl)-1H-pyrazol-3-yl)morpholin-3-one]"
3,577.9,"C[C@](O)(c1nc(=O)c2c(ccc3c(N)nsc32)[nH]1)[C@H]1OCCN(c2cccc(C(F)(F)F)n2)C1=O [Example 3, (R)-2-((S)-1-(3-Amino-9-oxo-6,9-dihydroisothiazolo[5,4-f]quinazolin-7-yl)-1-hydroxyethyl)-4-(6-(trifluoromethyl)pyridin-2-yl)morpholin-3-one]"
4,352.7,"CC(C)(O)c1cccc(N2CCO[C@](C)([C@@H](O)c3nc(=O)c4c(ccc5c(N)nsc54)[nH]3)C2=O)n1 [Example 4, (R)-2-((S)-(3-Amino-9-oxo-6,9-dihydroisothiazolo[5,4-f]quinazolin-7-yl)(hydroxy)methyl)-4-(6-(2-hydroxypropan-2-yl)pyridin-2-yl)-2-methylmorpholin-3-one]"
